For one data set, the system named is Hh signaling. Nature of the data set: Hh signaling (gli1 mRNA, Gli target gene induction) in BCC cells. It counts as cell-based, mouse. The protocol: (§1) Subconfluent ASZ001 cells were serum-starved and inhibitors added for 48 hrs prior to MTT assay and 24 hrs prior to visualize cilia and assay Gli target gene induction. Stability assays performed with ASZ001 preincubated with PSI for one hour before 20 ug/ml cyclohexamide addition at various time points.
(§2) Aligned 36 bp raw reads with Bowtie using the NCBI37/mm9 reference genome. Differential expression analysis was performed on the 3′ exon with the Cufflinks suite using mouse RefSeq gene predictions as a reference transcriptome. Annotated coding transcripts were filtered for significant expression by a RPKM of 25 in at least one sample set. […] Transcripts were validated using Brilliant II SYBR Green qRT-PCR Master Mix Kit (Agilent Technologies) with primers listed in the following table. Two-tail p-value between our gene sets and other gene sets calculated using Fisher's Exact Test.

Data set [1] deals with ASZ001 cells. Nature of the data set: 3' end RNA sequencing of inhibitor-treated BCC cells. It counts as cell-based, mouse. To be noted: inhibitor 24 hrs, FIG. 3a. The protocol: as §2
In the next data set the test system is allografted BCC tumors. To be noted: mouse, in vivo. The text has this: All mouse studies were approved by and conformed to the policies and regulations of the Institutional Animal Care and Use Committees at Stanford University and the Children's Hospital Oakland Research Institute. Ptch1+/−, K14CreER2, p53flox/flox mice were used to develop BCC tumors. Tumors were allografted as previously described (Wang, G. Y. et al. Establishment of Murine Basal Cell Carcinoma Allografts: A Potential Model for Preclinical Drug Testing and for Molecular Analysis. Journal of Investigative Dermatology (2011).doi:10.1038/jid.2011.204). Nine tumors from three mice were treated topically twice daily with 0.8 mg/kg PSI dissolved in DMSO for at least 32 days. Ten tumors from three mice were treated with DMSO twice daily as a control. Mice were euthanized and tumors harvested depending on tumor size that exceeded our animal care guidelines. We measured the change in tumor size with calipers every three to four days. Pairwise comparisons between DMSO and PSI treatment were done using a two-sided unpaired t test with GraphPad Prism software.

Another data set deals with non-tumorigenic cells. Nature of the data set: Proliferation of non-tumorigenic cells. The following applies: mouse dermal fibroblasts, mouse keratinocytes, human retinal pigment epithelial cells, FIG. 7. It counts as cell-based, mouse and human. As for the experimental part:
(§3) Primary mouse dermal cells were isolated as previously described (Bershteyn, M., Atwood, S. X., Woo, W.-M., Li, M. & Oro, A. E. MIM and cortactin antagonism regulates ciliogenesis and hedgehog signaling. Dev. Cell 19, 270-283 (2010)). Dermal cells were grown in Amniomax media containing supplement and antibiotics (Invitrogen). ASZ001 cells were grown in 154CF media containing 2% chelated FBS, HKGS supplement, and antibiotics (Invitrogen). Keratinocytes (HPA Culture Collections) were grown in CnT-07 media containing supplement and 0.07 mM CaCl2 (CelINTec). Cells were sterum-starved between 24-48 hrs to induce ciliogenesis. MTT cell proliferation assay was performed using manufacturer's protocol from Invitrogen.

Data set [2] deals with ASZ001 cells. It counts as cell-based, mouse. To be noted: 48 h. As for the experimental part: as §3, §1

Molecules are shown by their SMILES. Peptide text beside a SMILES is read from it. * marks the point of attachment. Myristoyl = CCCCCCCCCCCCCC(=O)*

With `CC1=C2C[C@H]3[C@@H](CC=C4C[C@@H](O)CC[C@@]43C)[C@@H]2CC[C@]12O[C@@H]1C[C@H](C)CN[C@H]1[C@H]2C` [cyclopamine], in the data set with Hh signaling (BCC cells, FIG. 2g), the “gli1 and apkciota transcript” value is given as “specifically suppressed”.

For `CNC1CCC(N(Cc2cccc(-c3ccncc3)c2)C(=O)c2sc3ccccc3c2Cl)CC1` (centres unmarked) [SAG], in the data set with Hh signaling (BCC cells, agonist alone, FIG. 3d), the gli1 transcription entry is “activates gli1 transcription”.

As for `Cc1nn(-c2ccccc2)c(C)c1/C=N/N1CCN(Cc2ccccc2)CC1` [Sant-1], in the data set on Hh signaling (mouse BCC cells, FIG. 2i), the cdc42 transcript entry was “repressed” and the pard6a transcript result is on record as “elevated”. The “transcripts changed two-fold or greater compared to control” value in the data set with ASZ001 cells [1] stood at 5700 transcripts.

Broadly, the IC50 is the concentration that inhibits the measured activity by half. Lower therefore signals greater potency. For the compound `CCCCCCCCCCCCCC(=O)N[C@@H](CO)C(=O)N[C@H](C(=O)N[C@@H](Cc1ccc(O)cc1)C(=O)N[C@@H](CCCNC(=N)N)C(=O)N[C@@H](CCCNC(=N)N)C(=O)NCC(=O)N[C@@H](C)C(=O)N[C@@H](CCCNC(=N)N)C(=O)N[C@@H](CCCNC(=N)N)C(=O)N[C@@H](Cc1c[nH]c2ccccc12)C(=O)N[C@@H](CCCNC(=N)N)C(=O)N[C@@H](CCCCN)C(=O)N[C@@H](CC(C)C)C(=O)N[C@@H](Cc1ccc(O)cc1)C(=O)O)[C@@H](C)CC` [PSI] (Myristoyl-SIYRRGARRWRKLY-OH), the “adverse effects on normal skin” value in the data set with allografted BCC tumors is reported as “no adverse effects to PSI treatment except a mild hair phenotype”. Moreover, the “proliferation in non-tumorigenic cells” value with non-tumorigenic cells is given as “unaffected”. The same compound gave an IC50 in the data set on ASZ001 cells [2] of 5 µM.

These data come from patent US9597369B2, “Inhibitors of atypical protein kinase C and their use in treating hedgehog pathway-dependent cancers” (The Board of Trustees of the Leland Stanford Junior …, priority 2011, dated 2017).
